Assay results published in patent US20200376146A1, “NANOBIOLOGIC COMPOSITIONS FOR INHIBITING TRAINED IMMUNITY” (ICAHN SCHOOL OF MEDICINE, priority 2017, published 2020).

Assays:
[1] = Hydrolysis of (pro-)drugs in nanobiologics; format: physicochemical; conditions: 4° C. in PBS
Experimental: (Pro-)drug recovery and hydrolysis were determined using the following procedure: an aliquot (200 μL) of the particle solution was dried under vacuum, acetonitrile (600 μL) was added and the suspension was sonicated for 20 minutes. The suspension was centrifuged to precipitate any solids and the remaining solution was analyzed using HPLC; except for the malonate derivatives which were analyzed using SFC-MS, and Dimethylmalonate which was analyzed by GC-MS.

[2] = Toxicity in transplant recipients (BUN, serum creatinine, histopathology); format: in vivo, mice; conditions: regimens giving 100% allograft survival for 30 days
[3] = test system: heart allograft; experiment: Cardiac allograft survival (BALB/c hearts into C57BL/6 recipients); format: in vivo, mice; conditions: oral, 5 mg/kg every day for 15 days

Row | SMILES | hydrolysis of the (pro-)drug in the nanobiologic over time [1] | blood urea nitrogen (BUN) and serum creatinine [2] | allograft survival for 30 days [3] [%]
1 | CCCCCCCCCCCCCCCCCC(=O)O[C@@H]1CC[C@@H](C[C@@H](C)[C@@H]2CC(=O)[C@H](C)/C=C(\C)[C@@H](O)[C@@H](OC)C(=O)[C@H](C)C[C@H](C)/C=C/C=C/C=C(\C)[C@@H](OC)C[C@@H]3CC[C@@H](C)[C@@](O)(O3)C(=O)C(=O)N3CCCC[C@H]3C(=O)O2)C[C@H]1OC [Cis-Rapamycin, Rapamycin-C18] | hydrolysis was observed | – | –
2 | CO[C@H]1C[C@@H]2CC[C@@H](C)[C@@](O)(O2)C(=O)C(=O)N2CCCC[C@H]2C(=O)O[C@H]([C@H](C)C[C@@H]2CC[C@@H](O)[C@H](OC)C2)CC(=O)[C@H](C)/C=C(\C)[C@@H](O)[C@@H](OC)C(=O)[C@H](C)C[C@H](C)/C=C/C=C/C=C/1C [Rapamycin, rapamycin] | – | kidney toxicity parameters show statistical differences between oral rapamycin and mTORi-HDL | 100
